Reference: ChEMBL document CHEMBL5537165, “Hepatitis C: The Story of a Long Journey through First, Second, and Third Generation NS3/4A Peptidomimetic Inhibitors. What Did We Learn?” (J Med Chem, 2024)
“And” between values parts separate entries of the source, which are not always exact repeats. Equal values may be shown once.

What was measured:
[1] = Oral bioavailability in Sprague-Dawley rat at 3 mg/kg by LC-MS/MS analysis; format: ADME, organism-based; details: in vivo
[2] = AUC in Beagle dog at 5 mg/kg, po measured upto 24 hrs by LC/MS-MS analysis; format: ADME, organism-based, Canis lupus familiaris; details: in vivo
[3] = Volume of distribution at steady state in Sprague-Dawley rat at 3 mg/kg, iv measured up to 24 hrs by LC-MS/MS analysis; format: ADME, organism-based; details: in vivo, read-out: Vdss
[4] = Clearance in Sprague-Dawley rat at 0.5 mg/kg, iv by LC-MS/MS analysis; format: ADME, organism-based; details: in vivo
[5] = Half life in Sprague-Dawley rat at 5 mg/kg, po by LC-MS/MS analysis; format: ADME, organism-based; details: in vivo
[6] = Cmax in Sprague-Dawley rat at 3 mg/kg, po and measured upto 24 hrs by LC-MS/MS analysis; format: ADME, organism-based; details: in vivo
[7] = AUC in Sprague-Dawley rat at 5 mg/kg, po measured upto 24 hrs by LC/MS/MS analysis; format: ADME, organism-based; details: in vivo
[8] = AUC (0 to infinity) in liver to plasma of Sprague-Dawley rat at 3 mg/kg,po; format: ADME, organism-based; details: in vivo
[9] = Clearance in Sprague-Dawley rat at 2 mg/kg, iv by LC-MS/MS analysis; format: ADME, organism-based; details: in vivo
Hepatitis C virus [10] = assay: Antiviral activity against Hepatitis C virus infected in human Huh7.5 cells pretreated […] for 2 hrs followed by viral infection for 1 hrs by plaque assay; format: functional, organism-based, Hepacivirus hominis
[11] = AUC in Sprague-Dawley rat at 2 mg/kg, po; format: ADME, organism-based; details: in vivo
[12] = Clearance in Beagle dog at 2 mg/kg, iv by LC-MS/MS analysis; format: ADME, organism-based, Canis lupus familiaris; details: in vivo
[13] = AUC in Beagle dog at 2 mg/kg, po; format: ADME, organism-based, Canis lupus familiaris; details: in vivo
[14] = biological target: T1, Non-structural protein 4b (Hepacivirus hominis, UniProt F5B4I0); assay: Inhibition of Hepatitis C virus genotype 1b NS4B
T1 sequence (F5B4I0 whole entry): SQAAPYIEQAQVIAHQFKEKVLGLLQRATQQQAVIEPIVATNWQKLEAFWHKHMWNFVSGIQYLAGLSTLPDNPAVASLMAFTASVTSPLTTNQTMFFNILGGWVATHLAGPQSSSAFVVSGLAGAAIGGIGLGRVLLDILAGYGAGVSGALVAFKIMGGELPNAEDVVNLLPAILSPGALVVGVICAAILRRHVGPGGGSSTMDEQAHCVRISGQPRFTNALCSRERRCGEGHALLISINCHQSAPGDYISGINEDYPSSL

[15] = Oral bioavailability in Sprague-Dawley rat; format: ADME, organism-based; details: in vivo
[16] = Oral bioavailability in Beagle dog at 2 mg/kg; format: ADME, organism-based, Canis lupus familiaris; details: in vivo
Hepatitis C virus [17] = assay: Antiviral activity against Hepatitis C virus genotype 1a infected in human Huh-7 cells assessed as reduction in viral infection; format: functional, organism-based, Hepacivirus hominis
Hepatitis C virus [18] = assay: Antiviral activity against Hepatitis C virus genotype 1b infected in human Huh-7 cells assessed as reduction in viral infection; format: functional, organism-based, Hepacivirus hominis
[19] = Half life in Beagle dog at 5 mg/kg, po by LC-MS/MS analysis; format: ADME, organism-based, Canis lupus familiaris; details: in vivo
[20] = biological target: T1, Non-structural protein 4b; assay: Binding affinity to Hepatitis C virus genotype 3a NS4B assessed as inhibition constant
[21] = biological target: T1, Non-structural protein 4b; assay: Inhibition of Hepatitis C virus genotype 4a NS4B
[22] = biological target: T1, Non-structural protein 4b; assay: Inhibition of Hepatitis C virus genotype 6a NS4B
[23] = biological target: T1, Non-structural protein 4b; assay: Binding affinity to Hepatitis C virus genotype 1a NS4B assessed as inhibition constant
[24] = biological target: T1, Non-structural protein 4b; assay: Inhibition of Hepatitis C virus genotype 5a NS4B
[25] = biological target: T1, Non-structural protein 4b; assay: Inhibition of Hepatitis C virus genotype 3a NS4B
[26] = biological target: T1, Non-structural protein 4b; assay: Inhibition of Hepatitis C virus genotype 2b NS4B
[27] = biological target: T1, Non-structural protein 4b; assay: Binding affinity to Hepatitis C virus genotype 6a NS4B assessed as inhibition constant
Hepatitis C virus [28] = assay: Antiviral activity against HCV assessed as inhibition of RNA replication; format: functional, organism-based, Hepacivirus hominis
[29] = biological target: T1, Non-structural protein 4b; assay: Binding affinity to Hepatitis C virus genotype 1b NS4B assessed as inhibition constant
[30] = biological target: T1, Non-structural protein 4b; assay: Inhibition of Hepatitis C virus genotype 1a NS4B
[31] = biological target: T1, Non-structural protein 4b; assay: Binding affinity to Hepatitis C virus genotype 4a NS4B assessed as inhibition constant
[32] = biological target: Hepatitis C virus NS5B RNA-dependent RNA polymerase (Hepatitis C virus, UniProt Q8JXU8); assay: Binding affinity to Hepatitis C virus genotype 2a NS5B polymerase assessed as inhibition constant
Sequence of Hepatitis C virus NS5B RNA-dependent RNA polymerase (Q8JXU8 whole entry): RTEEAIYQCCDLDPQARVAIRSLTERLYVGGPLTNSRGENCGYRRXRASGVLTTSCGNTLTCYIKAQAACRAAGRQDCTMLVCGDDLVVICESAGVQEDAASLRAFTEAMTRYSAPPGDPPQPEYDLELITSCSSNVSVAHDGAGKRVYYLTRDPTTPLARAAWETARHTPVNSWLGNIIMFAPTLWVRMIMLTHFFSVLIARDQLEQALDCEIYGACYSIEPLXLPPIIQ

[33] = biological target: T1, Non-structural protein 4b; assay: Inhibition of Hepatitis C virus genotype 3a NS4B expressed in Escherichia coli
SARS-CoV-2 = assay: Antiviral activity against SARS-CoV-2 infected in African green monkey Vero cells assessed as reduction in viral replication measured after 72 hrs by qRT-PCR analysis; format: functional, organism-based; details: Severe acute respiratory syndrome coronavirus 2, Vero
RNA = assay: Inhibition of Hepatitis C virus RNA; format: nucleic-acid assay, Hepacivirus hominis
[34] = biological target: T1, Non-structural protein 4b; assay: Binding affinity to Hepatitis C virus genotype 2b NS4B assessed as inhibition constant
[35] = Half life in Cynomolgus monkey at 1.0 mg/kg,iv or 1.25 mg/kg, po; format: ADME, organism-based, Macaca fascicularis; details: in vivo
[36] = Half life in human liver microsomes at 1 uM by LC-MS/MS analysis; format: ADME, Microsome
[37] = AUC in Sprague-Dawley rat plasma […] at 10 mg/kg, po administered via gavage by LC-MS/MS analysis; format: ADME, organism-based; details: in vivo

With `C=C[C@@H]1C[C@]1(NC(=O)[C@@H]1C[C@@H](Oc2cc(-c3csc(NC(=O)C(C)C)n3)nc3c(Br)c(OC)ccc23)CN1C(=O)[C@@H](NC(=O)OC1CCCC1)C(C)(C)C)C(=O)O` the bioavailability [1] was 40%, the AUC [2] was 13 µM·h and the Vd [3] was 1.2 L/kg. It also gave a clearance [4] of 20 mL/min/kg, a half-life [5] of 1.2 h and a Cmax [6] of 400 nM. The AUC [7] was 1.55 µM·h and the AUC [8] was 40 µM·h.

`CCC[C@H](NC(=O)[C@@H]1[C@H]2CCC[C@H]2CN1C(=O)[C@@H](NC(=O)[C@@H](NC(=O)c1cnccn1)C1CCCCC1)C(C)(C)C)C(=O)C(=O)NC1CC1` gave a clearance [9] of 54 mL/min/kg, an EC50 (Hepatitis C virus [10]) of 15 nM and an AUC [11] of 3.34 µM·h. It also gave a clearance [12] of 42 mL/min/kg, an AUC [13] of 40.7 µM·h and an IC50 [14] of 354 nM. For the same compound, the bioavailability [15] was 25% and the bioavailability [16] was 40.7%.

`COc1ccc2c(O[C@@H]3C[C@H]4C(=O)N[C@]5(C(=O)NS(=O)(=O)C6CC6)C[C@H]5/C=C\CCCCC[C@H](CC(=O)N5CCCC(F)(F)C5)C(=O)N4C3)cc(-c3nc(C(C)C)cs3)nc2c1C` showed an EC50 (Hepatitis C virus [17]) of 0.04 nM and an EC50 (Hepatitis C virus [18]) of 0.7 nM.

`CC(C)(C)[C@@H]1NC(=O)O[C@@H]2CCC[C@H]2OC/C=C/C(F)(F)c2nc3ccccc3nc2O[C@@H]2C[C@@H](C(=O)N[C@]3(C(=O)NS(=O)(=O)C4(C)CC4)C[C@H]3C(F)F)N(C2)C1=O` showed a half-life [19] of 0.6 h, a Ki [20] of 0.96 nM and an IC50 [21] of 6.1 nM. It also gave a half-life [5] of 2.8 h, an IC50 [22] of 11.3 nM and a Ki [23] of 0.075 nM. The IC50 [24] was 8.1 nM, the IC50 [25] was 7900 nM and the IC50 [26] was 3.8 nM. The AUC [11] was 22 µM·h, the Ki [27] was 0.11 nM and the EC50 (Hepatitis C virus [28]) was 0.24 nM. For the same compound, the Ki [29] was 0.063 nM, the IC50 [30] was 4.4 nM and the IC50 [14] was 8.9 nM. The bioavailability [15] was 90%, the bioavailability [16] was 95% and the Ki [31] was 0.92 nM and 0.092 nM. For the same compound, the Ki [32] was 0.053 nM.

`CC(C)Oc1ccc(-c2nc(O[C@@H]3C[C@H]4C(=O)N[C@]5(C(=O)NS(=O)(=O)C6(C)CC6)C[C@H]5/C=C\CCCCC[C@H](NC(=O)OC5CCCC5)C(=O)N4C3)c3oc4ccccc4c3n2)cc1` showed an IC50 [21] of 0.6 nM, an IC50 [22] of 0.6 nM and an IC50 [24] of 0.6 nM. For the same compound, the IC50 [25] was 600 nM, the EC50 [33] was 1.6 nM and the EC50 (SARS-CoV-2) was 1.6 nM. It also gave an IC50 [30] of 0.6 nM and an IC50 [14] of 0.6 nM.

With `COc1cnc(O[C@@H]2C[C@H]3C(=O)N[C@]4(C(=O)NS(=O)(=O)C5CC5)CC4/C=C\CCCCC[C@H](NC(=O)OC(C)(C)C)C(=O)N3C2)c2cc(Cl)ccc12` (stereo partly drawn) the IC50 [33] was 51 nM.

With `Cc1ccc2nc(-c3ccc4nc(-c5ccc(NC(=O)c6cc(C(F)(F)F)cc(C(F)(F)F)c6)cc5)sc4c3)sc2c1S(=O)(=O)O` the IC50 (RNA) was 5 nM.

`CC(C)(C)NC(=O)N[C@H](C(=O)N1C[C@H]2[C@@H]([C@H]1C(=O)NC(CC1CCC1)C(=O)C(N)=O)C2(C)C)C(C)(C)C` (stereo partly drawn) [BOCEPREVIR] gave a Ki [20] of 6 nM, a Ki [23] of 6 nM and a Ki [34] of 6 nM.

In the case of `C=C[C@@H]1C[C@]1(NC(=O)[C@@H]1C[C@@H](Oc2cc(-c3ccccc3)nc3cc(OC)ccc23)CN1C(=O)[C@@H](CC(=O)N1CCCCC1)C(C)(C)C)C(=O)NS(=O)(=O)C1CC1` [SOVAPREVIR], the half-life [19] is reported as 115 h, the half-life [5] is reported as over 90 h and the half-life [35] is reported as 10.4 h. It also gave a half-life at 1 µM [36] of 1.77 h, an AUC [37] of 339 µM·h and an AUC [8] of over 505 µM·h. The Ki [29] was 0.06 nM and the IC50 [30] was 11 nM.
